Where two headings read alike, the source gives them in different places.
How the values were obtained:
[1] = molecular target: T1, Recombinant GST-TAG-MASTL (Homo sapiens, UniProt Q96GX5); experiment: HTRF-based kinase assay (HTRF KinEASE assay kit); format: biochemical; conditions: for activity at 1 µM: read-out: MASTL activity (%) HTRF (1 µM)
T1 construct: GST; purchased Thermo Fisher Scientific
T1 sequence (Q96GX5 1-879): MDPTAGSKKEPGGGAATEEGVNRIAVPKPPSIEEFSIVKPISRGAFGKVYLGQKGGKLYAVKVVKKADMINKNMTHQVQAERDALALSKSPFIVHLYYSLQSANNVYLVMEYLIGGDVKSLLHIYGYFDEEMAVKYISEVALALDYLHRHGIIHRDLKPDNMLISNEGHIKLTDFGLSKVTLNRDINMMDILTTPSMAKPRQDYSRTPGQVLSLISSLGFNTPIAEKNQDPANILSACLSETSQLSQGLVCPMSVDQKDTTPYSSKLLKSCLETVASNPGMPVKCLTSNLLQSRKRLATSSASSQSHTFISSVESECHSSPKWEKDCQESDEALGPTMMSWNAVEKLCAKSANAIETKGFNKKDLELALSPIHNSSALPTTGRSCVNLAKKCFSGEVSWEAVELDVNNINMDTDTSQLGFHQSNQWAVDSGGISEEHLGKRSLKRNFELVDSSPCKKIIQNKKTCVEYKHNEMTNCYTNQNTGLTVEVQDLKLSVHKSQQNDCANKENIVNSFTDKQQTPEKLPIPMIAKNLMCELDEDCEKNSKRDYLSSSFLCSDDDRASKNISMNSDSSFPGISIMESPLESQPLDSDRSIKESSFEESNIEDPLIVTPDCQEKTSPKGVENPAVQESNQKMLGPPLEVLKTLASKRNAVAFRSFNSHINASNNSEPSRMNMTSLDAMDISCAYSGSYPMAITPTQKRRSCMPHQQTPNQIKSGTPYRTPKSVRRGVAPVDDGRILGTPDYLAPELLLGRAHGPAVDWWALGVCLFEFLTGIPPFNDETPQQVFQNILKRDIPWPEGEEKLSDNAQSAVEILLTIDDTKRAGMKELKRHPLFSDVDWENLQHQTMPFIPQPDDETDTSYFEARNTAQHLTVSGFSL
Source text: Recombinant GST-TAG-MASTL (Thermo Fisher Scientific, MA, USA) was used for HTRF-based kinase assays. The HTRF KinEASE assay kit (CisBio, MA, USA) was used according to the manufacturer's instructions.

pENSA = pENSA level by immunofluorescence (described method: in vitro kinase analysis with GST-tag-MASTL and His-tag-ENSA); format: cell-based; conditions: for pENSA (%) Immunofluor ecense (1 µM): compound 1 µM
How it was run: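 In vitro kinase reaction using recombinant GST-tagged MASTL with His-tagged ENSA as substrate; phosphorylated ENSA (pENSA) serves as read-out of MASTL activity. Cell lines named: MCF7 breast cancer and MCF10A.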

[2] = system: MCF7 breast cancer cell lines; experiment: Cell viability analysis, WST-8 assay, MCF7; conditions: for Cell viability (%) WST-8, MCF7 (1 µM): compound 1 µM, 72 hours; for viability at 1.1 µM: read-out: Cell viability (%) WST-8, MCF7, footnote d: concentration 1.1 µM, 72 hours
Protocol: (§1) MCF7 breast cancer cell lines and MCF10A normal breast cancer cell lines were treated with serial dilutions of the compounds of the present invention ranging from 1 µM to 15.63 nM for 72 hours. Cell viability was measured by the WST-8 assay (Cyto XTM cell viability assay kit; LPS solution, Daejeon, Korea) according to the manufacturer's instructions.

[3] = system: MCF10A normal breast cancer cell lines; experiment: Cell viability analysis, WST-8 assay, MCF10A; conditions: compound 1 µM, 72 hours
Protocol: as §1

MASTL = molecular target: T2, MASTL (Homo sapiens, UniProt Q96GX5); conditions: reported MASTL inhibitors, background art; cited from earlier work
T2 sequence (Q96GX5 1-879): T1 sequence (Q96GX5 1-879)

[4] = Cell viability analysis, WST-8 assay, MCF10A; conditions: human, mcf10a cells
Protocol: as §1

[5] = system: MCF10A normal breast cell lines; experiment: Cell viability analysis, WST-8 assay, MCF10A
Protocol: as §1

in vitro = conditions: human, mcf10a cells
Protocol: as §1

[6] = HTRF, read-out: IC50(nM) MASTL activity
[7] = Homo sapiens, MCF7, 72 h, read-out: IC50(nM) Cell viability (MCF7)
[8] = Homo sapiens, MCF-10A, 72 h, read-out: IC50(nM) Cell viability (MCF10A)
[9] = Homo sapiens, MCF7, 72 h, read-out: IC50 Cell viability (MCF7)
[10] = Homo sapiens, MCF-10A, 72 h, read-out: IC50 Cell viability (MCF10A)
[11] = Homo sapiens, MCF7, 72 h, read-out: Cell viability (%) WST-8, MCF7 (1 µM), compound 1 µM, 72 hours
[12] = read-out: IC50(nM) Cell viability (MCF7), MCF7, WST-8, 72 hours
[13] = read-out: IC50(nM) Cell viability (MCF10A), MCF10A, WST-8, 72 hours

Compound | MASTL activity (%) HTRF (1 µM) ([1]; compound 1 µM) | pENSA (%) Immunofluor ecense (1 µM) (pENSA) | Cell viability (%) WST-8, MCF7 (1 µM) [2] | Cell viability (%) WST-8, MCF10A (1 µM) [3] | IC50 [1, 6] | activity at 1 µM ([1]; compound 1 µM) | viability at 1.1 µM (in vitro) | viability at 1.1 µM ([2]; Homo sapiens, MCF7, 72 h) | IC50 [2, 9] | further results
COc1ccc(CNc2nc(Nc3cc(C4CC4)[nH]n3)c3ccccc3n2)cc1 [4ad, M^4-(5-cyclopropyl-1G-pyrazol-3-yl)-M^2-(4-methoxybenzyl)quinazoline-2,4-diamine] | 65.7% | 143% | 96.4% | 96.0% |  |  |  |  |  | 
Clc1ccc(Nc2cccc(-c3cn[nH]c3)c2)cc1 [GKI-1] |  |  |  |  |  |  |  |  |  | IC50 (MASTL): 4900 nM
O=C(Nc1nc2ccccc2[nH]1)c1cccc(-n2cccc2)c1 [MKI-1] |  |  |  |  |  |  |  |  |  | IC50 (MASTL): 9900 nM
N#CCc1ccc(Nc2nc(Nc3cc(C4CC4)[nH]n3)c3ccccc3n2)cc1 [compound 3a, 2-(4-((4-((5-cyclopropyl-1G-pyrazol-3-yl)amino)quinazolin-2-yl)amino)phenyl)acetonitrile] |  | 5.1% |  |  | 178 nM | 20.8% |  |  |  | IC50 (pENSA; read-out: IC50(nM) pENSA): 100 nM; viability at 1 µM ([2]; Homo sapiens, MCF7, 72 h, read-out: Cell viability (%) WST-8, MCF7 (1 µM)): 0.05%; IC50 [2, 7]: 207 nM; viability at 1 µM [4]: 1.6%; IC50 [5, 8]: 29 nM
CC(C)S(=O)(=O)N1CC2CC1CN2c1nc(Nc2cc(C3CC3)[nH]n2)c2ccccc2n1 (centres unmarked) [compound 15h, M-(5-cyclopropyl-1G-pyrazol-3-yl)-2-(5-(isopropylsulfonyl)-2,5-diazabicyclo[2.2.1]heptan-2-yl)quinazolin-4-amine] |  | 51.7% |  |  | 147 nM | 15.7% | 45% | 94.5% | 1700 nM | IC50 [5, 8]: 833 nM
CCCS(=O)(=O)N1CC2CC1CN2c1nc(Nc2cc(C3CC3)[nH]n2)c2ccccc2n1 (centres unmarked) [compound 15j, M-(5-cyclopropyl-1G-pyrazol-3-yl)-2-(5-(propylsulfonyl)-2,5-diazabicyclo[2.2.1]heptan-2-yl)quinazolin-4-amine] |  | 65.2% |  |  | 284 nM | 31.6% | 65.2% | 104% | 3200 nM | IC50 [5, 10]: 1300 nM
O=S(=O)(c1ccccc1)N1CC2CC1CN2c1nc(Nc2cc(C3CC3)[nH]n2)c2ccccc2n1 (centres unmarked) [compound 15m, M-(5-cyclopropyl-1G-pyrazol-3-yl)-2-(5-(phenylsulfonyl)-2,5-diazabicyclo[2.2.1]heptan-2-yl)quinazolin-4-amine] |  | 82.6% |  |  | 490 nM | 28.7% | 82.2% | 111% | 4200 nM | IC50 [5, 10]: 1900 nM
O=S(=O)(c1ccc(F)cc1)N1CC2CC1CN2c1nc(Nc2cc(C3CC3)[nH]n2)c2ccccc2n1 (centres unmarked) [compound 15n, M-(5-cyclopropyl-1G-pyrazol-3-yl)-2-(5-((4-fluorophenyl)sulfonyl)-2,5-diazabicyclo[2.2.1]heptan-2-yl)quinazolin-4-amine] |  | 77.5% |  |  | 327 nM | 32.4% | 63.9% | 108% | 3500 nM | IC50 [5, 10]: 1300 nM
O=S(=O)(c1ccc(F)cc1F)N1CC2CC1CN2c1nc(Nc2cc(C3CC3)[nH]n2)c2ccccc2n1 (centres unmarked) [compound 15o, M-(5-cyclopropyl-1G-pyrazol-3-yl)-2-(5-((2,4-difluorophenyl)sulfonyl)-2,5-diazabicyclo[2.2.1]heptan-2-yl)quinazolin-4-amine] |  | 90.3% |  |  | 170 nM | 20.3% | 92.6% | 119% | 3700 nM | IC50 [5, 10]: 2400 nM
CC(C)(C)OC(=O)N1CC2CCC1CN2c1nc(Nc2cc(C3CC3)[nH]n2)c2ccccc2n1 (centres unmarked) [compound 19, sdqs,butyl 5-(4-((5-cyclopropyl-1G-pyrazol-3-yl)amino)quinazolin-2-yl)-2,5-diazabicyclo[2.2.2]octane-2-carboxylate] |  | 84.7% |  |  | 569 nM | 39.9% |  |  | 1100 nM | viability at 1 µM (in vitro): 71.3%; viability at 1 µM [2, 11]: 41.2%; IC50 [5, 8]: 810 nM
c1ccc2c(Nc3cc(C4CC4)[nH]n3)nc(N3CC4CCC3CN4)nc2c1 (centres unmarked) [compound 20, 2-(2,5-diazabicyclo[2.2.2]octan-2-yl)-M-(5-cyclopropyl-1G-pyrazol-3-yl)quinazolin-4-amine trifluoroacetic acid] |  | 30.9% |  |  |  |  |  |  |  | IC50 [1]: 194 nM; activity at 1 µM [1]: 36.5%; IC50 (pENSA; read-out: IC50(nM) pENSA): 66.5 nM; viability at 1 µM (in vitro): 3.9%; viability at 1 µM [2, 11]: 5.5%; IC50 [2, 7]: 150 nM; IC50 [5, 8]: 131 nM
CC(C)S(=O)(=O)N1CC2CCC1CN2c1nc(Nc2cc(C3CC3)[nH]n2)c2ccccc2n1 (centres unmarked) [compound 24a, M (5-cyclopropyl-1G-pyrazol-3-yl)-2-(5-(isopropylsulfonyl)-2,5-diazabicyclo[2.2.2]octan-2-yl)quinazolin-4-amine] | 29.9% | 14% | 4.8% | 15.7% | 180 nM |  |  |  |  | IC50 (pENSA; read-out: IC50(nM) pENSA): 263 nM; IC50 [2, 12]: 954 nM; IC50 [5, 13]: 420 nM
O=S(=O)(C1CCCCC1)N1CC2CCC1CN2c1nc(Nc2cc(C3CC3)[nH]n2)c2ccccc2n1 (centres unmarked) [compound 24b, 2-(5-(cyclohexylsulfonyl)-2,5-diazabicyclo[2.2.2]octan-2-yl)-M-(5-cyclopropyl-1G-pyrazol-3-yl)quinazolin-4-amine] | 24.8% | 36% | 90.7% | 26.5% | 198 nM |  |  |  |  | IC50 (pENSA; read-out: IC50(nM) pENSA): 770 nM; IC50 [5, 13]: 684 nM
O=S(=O)(c1cccs1)N1CC2CCC1CN2c1nc(Nc2cc(C3CC3)[nH]n2)c2ccccc2n1 (centres unmarked) [compound 24d, M-(5-cyclopropyl-1G-pyrazol-3-yl)-2-(5-(thiophen-2-ylsulfonyl)-2,5-diazabicyclo[2.2.2]octan-2-yl)quinazolin-4-amine] | 32.9% | 2.6% | 6.4% | 4.9% | 597 nM |  |  |  |  | IC50 (pENSA; unit µM, read-out: IC50 pENSA): 1900 nM; IC50 [2, 12]: 626 nM; IC50 [5, 13]: 210 nM
N#Cc1ccccc1S(=O)(=O)N1CC2CCC1CN2c1nc(Nc2cc(C3CC3)[nH]n2)c2ccccc2n1 (centres unmarked) [compound 24e, 2-((5-(4-((5-cyclopropyl-1G-pyrazol-3-yl)amino)quinazolin-2-yl)-2,5-diazabicyclo[2.2.2]octan-2-yl)sulfonyl)benzonitrile] | 10.8% | 4.1% | 2.2% | 2.8% | 213 nM |  |  |  |  | IC50 (pENSA; unit µM, read-out: IC50 pENSA): 1900 nM; IC50 [2, 12]: 543 nM; IC50 [5, 13]: 184 nM

Reference: patent EP4786466A1, “QUINAZOLINE DERIVATIVE, SALT THEREOF, AND PHARMACEUTICAL COMPOSITION COMPRISING SAME AS ACTIVE INGREDIENT” (Korea Research Institute of Chemical Technology, priority 2023, dated 2025)
